Reference: the NIST ThermoML archive (doi:10.1021/acs.jced.8b00229)

Conditions: Liquid, Vibrating tube method

C=CCCCC [hex-1-ene]
Conditions	mass density [kg/m3]
283.57 K, 1000 kPa	683.2
283.57 K, 3000 kPa	685.2
283.57 K, 5000 kPa	687.2
283.57 K, 10000 kPa	691.9
283.57 K, 15000 kPa	696.4
283.57 K, 20000 kPa	700.6
283.57 K, 25000 kPa	704.7
283.57 K, 30000 kPa	708.5
283.57 K, 35000 kPa	712.4
283.57 K, 45000 kPa	719.4
283.58 K, 500 kPa	682.3
283.58 K, 40000 kPa	714.7
283.58 K, 50000 kPa	722.4
283.58 K, 55000 kPa	725.5
283.58 K, 60000 kPa	728.6
283.58 K, 70000 kPa	734.4
283.58 K, 80000 kPa	739.9
283.59 K, 100 kPa	682.2
283.59 K, 90000 kPa	745.2
283.59 K, 100000 kPa	750.1
293.5 K, 1000 kPa	674.1
293.51 K, 100 kPa	673.1
293.51 K, 500 kPa	673.5
293.51 K, 3000 kPa	676.3
293.51 K, 5000 kPa	678.4
293.51 K, 10000 kPa	683.5
293.51 K, 20000 kPa	692.8
293.51 K, 25000 kPa	697
293.51 K, 30000 kPa	701.1
293.51 K, 35000 kPa	704.9
293.51 K, 55000 kPa	718.9
293.51 K, 60000 kPa	722.1
293.51 K, 70000 kPa	728.2
293.51 K, 80000 kPa	733.8
293.51 K, 90000 kPa	739.3
293.51 K, 100000 kPa	744.4
293.52 K, 15000 kPa	688.3
293.52 K, 40000 kPa	708.6
293.52 K, 45000 kPa	712.5
293.52 K, 50000 kPa	715.6
303.4 K, 500 kPa	664.1
303.4 K, 1000 kPa	664.6
303.41 K, 100 kPa	663.5
303.41 K, 3000 kPa	667
303.41 K, 5000 kPa	669.3
303.41 K, 10000 kPa	674.8
303.41 K, 15000 kPa	679.9
303.41 K, 20000 kPa	684.7
303.41 K, 25000 kPa	689.2
303.42 K, 30000 kPa	693.5
303.42 K, 35000 kPa	698.2
303.42 K, 40000 kPa	701.5
303.42 K, 45000 kPa	705.8
303.42 K, 50000 kPa	708.8
303.42 K, 55000 kPa	712.8
303.42 K, 60000 kPa	715.5
303.42 K, 70000 kPa	721.8
303.42 K, 80000 kPa	727.7
303.42 K, 90000 kPa	733.2
303.42 K, 100000 kPa	738.5
313.34 K, 100 kPa	654.1
313.34 K, 20000 kPa	676.6
313.35 K, 500 kPa	654.2
313.35 K, 1000 kPa	655.3
313.35 K, 3000 kPa	657.9
313.35 K, 5000 kPa	660.3
313.35 K, 10000 kPa	666.1
313.35 K, 15000 kPa	671.6
313.35 K, 25000 kPa	681.4
313.35 K, 30000 kPa	685.9
313.35 K, 35000 kPa	690.2
313.35 K, 40000 kPa	694.3
313.35 K, 45000 kPa	698.3
313.35 K, 50000 kPa	701.9
313.35 K, 55000 kPa	705.7
313.35 K, 60000 kPa	709
313.35 K, 80000 kPa	721.9
313.35 K, 90000 kPa	727.6
313.35 K, 100000 kPa	733.2
313.36 K, 70000 kPa	715.9
323.18 K, 100 kPa	644.5
323.18 K, 60000 kPa	702.5
323.19 K, 500 kPa	644.9
323.19 K, 1000 kPa	645.8
323.19 K, 3000 kPa	648.6
323.19 K, 5000 kPa	651.3
323.19 K, 10000 kPa	657.6
323.19 K, 50000 kPa	695.2
323.19 K, 55000 kPa	699.3
323.2 K, 15000 kPa	663.4
323.2 K, 20000 kPa	668.8
323.2 K, 30000 kPa	678.6
323.2 K, 35000 kPa	683.4
323.2 K, 40000 kPa	687.3
323.2 K, 70000 kPa	709.4
323.2 K, 80000 kPa	715.7
323.2 K, 90000 kPa	721.6
323.2 K, 100000 kPa	727.2
323.21 K, 25000 kPa	673.8
323.21 K, 45000 kPa	691.8
333.08 K, 500 kPa	635.3
333.08 K, 1000 kPa	636
333.08 K, 3000 kPa	639.1
333.08 K, 5000 kPa	642
333.08 K, 10000 kPa	648.8
333.09 K, 15000 kPa	655
333.09 K, 20000 kPa	660.8
333.09 K, 25000 kPa	666.1
333.09 K, 30000 kPa	671.1
333.09 K, 35000 kPa	676.4
333.09 K, 40000 kPa	680.2
333.09 K, 45000 kPa	685.1
333.09 K, 50000 kPa	688.5
333.09 K, 55000 kPa	693
333.09 K, 60000 kPa	696.1
333.09 K, 70000 kPa	703.3
333.09 K, 80000 kPa	709.8
333.09 K, 90000 kPa	715.9
333.09 K, 100000 kPa	721.7
342.96 K, 500 kPa	625.6
342.96 K, 1000 kPa	626.4
342.97 K, 3000 kPa	629.8
342.97 K, 5000 kPa	633
342.97 K, 10000 kPa	640.3
342.97 K, 15000 kPa	647
342.97 K, 20000 kPa	653.2
342.97 K, 25000 kPa	658.8
342.97 K, 30000 kPa	664.1
342.97 K, 35000 kPa	669.6
342.97 K, 40000 kPa	673.8
342.97 K, 45000 kPa	678.8
342.97 K, 50000 kPa	682.3
342.97 K, 55000 kPa	687
342.97 K, 60000 kPa	690.4
342.97 K, 70000 kPa	697.6
342.97 K, 80000 kPa	704.3
342.97 K, 90000 kPa	710.7
342.97 K, 100000 kPa	716.6
352.85 K, 500 kPa	615.7
352.85 K, 1000 kPa	617
352.85 K, 3000 kPa	620.7
352.85 K, 5000 kPa	624.2
352.85 K, 15000 kPa	639.4
352.86 K, 10000 kPa	632.2
352.86 K, 20000 kPa	645.7
352.86 K, 25000 kPa	651.7
352.86 K, 30000 kPa	657.4
352.86 K, 35000 kPa	662.8
352.86 K, 40000 kPa	667.4
352.86 K, 45000 kPa	672.4
352.86 K, 50000 kPa	676.6
352.86 K, 55000 kPa	680.9
352.86 K, 60000 kPa	684.8
352.86 K, 70000 kPa	692.4
352.86 K, 80000 kPa	699.4
352.86 K, 90000 kPa	705.9
352.86 K, 100000 kPa	712
362.7 K, 500 kPa	604.1
362.7 K, 1000 kPa	605.5
362.7 K, 100000 kPa	705.7
362.71 K, 3000 kPa	609.5
362.71 K, 5000 kPa	613.3
362.71 K, 10000 kPa	622
362.71 K, 15000 kPa	629.7
362.71 K, 20000 kPa	636.7
362.71 K, 25000 kPa	643
362.71 K, 30000 kPa	648.9
362.71 K, 35000 kPa	654.7
362.71 K, 40000 kPa	659.6
362.71 K, 45000 kPa	664.8
362.71 K, 50000 kPa	669
362.71 K, 55000 kPa	673.7
362.71 K, 60000 kPa	677.6
362.71 K, 70000 kPa	685.4
362.71 K, 80000 kPa	692.6
362.71 K, 90000 kPa	699.3
